Measured values taken from US11702418B2, “SOS1 inhibitors” (priority 2019, dated 2023).
Like-named read-outs stand apart in the source and are kept apart here.

Legend:
[1] = system: pERK in NCI-H1435 cells (NF-1 mutant); experiment: pERK inhibition in NF-1 mutant NCI-H1435 cells (Example F); format: cell-based; details: NCI-H1435, 1 h, read-out: IC50, pERK inhibition
Experimental: The formaldehyde was discarded from the plates and 150 μL of ice-cold methanol was added to permeabilize the cells for 10 minutes at −20° C. The methanol was discarded from each of the plates and any liquid remaining in the plate by tapping the plate against paper towels. […] The plates were incubated overnight at 4° C. on a shaker.
On Assay day 2, the primary antibody solution was removed. […] The secondary antibody solution as removed and each plate was washed with PBST 3× times. Any liquid remaining was discarded and the plate was imaged using the Licor Odyssey machine according to the manufacturer's instruction, using a set focus length at 3 mm and both 800 nm and 700 nm filters. The GAPDH normalized scan values for each well were divided by the average of vehicle wells to get the % of pERK inhibition. The IC50 values were then calculated with the Graph pad Prism software.

[2] = system: pERK in MKN1 cells; experiment: cells; format: cell-based; details: Homo sapiens, MKN-1, pERK inhibition, In-Cell Western, MKN1 or H358 cells (Table 24 does not say which), 0.5-1 hour incubation
[3] = biological target: recombinant human SOS1 polypeptide (amino acids 560-1049) (Homo sapiens (Human), UniProt Q07889); experiment: biochemical; format: binding; details: read-out: Ki, Inhibition of Labeled Tracer Binding to SOS1
[4] = HTRF displacement, Cy5 labelled tracer, Morrison equation for competitive binding

Chain of recombinant human SOS1 polypeptide (amino acids 560-1049) (Q07889 560-1049): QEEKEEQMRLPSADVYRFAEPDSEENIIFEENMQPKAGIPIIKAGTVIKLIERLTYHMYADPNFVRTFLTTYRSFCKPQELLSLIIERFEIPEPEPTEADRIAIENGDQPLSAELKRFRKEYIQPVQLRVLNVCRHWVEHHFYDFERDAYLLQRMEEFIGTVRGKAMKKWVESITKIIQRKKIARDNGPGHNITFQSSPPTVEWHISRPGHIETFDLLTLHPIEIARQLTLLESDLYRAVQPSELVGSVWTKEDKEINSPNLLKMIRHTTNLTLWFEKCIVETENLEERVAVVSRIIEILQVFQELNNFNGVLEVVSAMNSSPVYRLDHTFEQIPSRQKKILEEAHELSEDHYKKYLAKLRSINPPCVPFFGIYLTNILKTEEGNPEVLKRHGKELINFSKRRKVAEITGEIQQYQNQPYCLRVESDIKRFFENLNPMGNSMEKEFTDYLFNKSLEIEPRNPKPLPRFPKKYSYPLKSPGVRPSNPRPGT

Row | SMILES | IC50 [1] | IC50 ([2]; read-out: IC50) | Ki [3, 4] | IC50 [2] | Ki [3]
1 | CNCc1ccccc1-c1ccc([C@@H](C)Nc2nnc(C)c3ccc(N4CCOCC4)cc23)s1 [Example 6-3, (R)-4-methyl-N-(1-(5-(2-((methylamino)methyl)phenyl)thiophen-2-yl)ethyl)-7-morpholinophthalazin-1-amine] | 25 nM | 12 nM | 0.02 nM | – | –
2 | Cc1nnc(N[C@H](C)c2cc(N)cc(C(F)(F)F)c2)c2cc(N3CCOCC3)ccc12 [Example 6-5, (R)-N-(1-(3-amino-5-(trifluoromethyl)phenyl)ethyl)-4-methyl-7-morpholinophthalazin-1-amine] | 9 nM | 10 nM | 0.12 nM | – | –
3 | CNCc1c(F)cccc1-c1ccc([C@@H](C)Nc2nnc(C)c3ccc(N4CCOCC4)cc23)s1 [Example 6-6, (R)-N-(1-(5-(3-fluoro-2-((methylamino)methyl)phenyl)thiophen-2-yl)ethyl)-4-methyl-7-morpholinophthalazin-1-amine] | 29 nM | 40 nM | 0.11 nM | – | –
4 | Cc1c([C@@H](C)Nc2nnc(C)c3cnc(N4CCNCC4)cc23)cccc1C(F)(F)F [Example 6-9, (R)-4-methyl-N-(1-(2-methyl-3-(trifluoromethyl)phenyl)ethyl)-7-(piperazin-1-yl)pyrido[3,4-d]pyridazin-1-amine] | 52 nM | – | – | – | –
5 | Cc1c([C@@H](C)Nc2nnc(C)c3cnc(N4CCOCC4)cc23)cccc1C(F)(F)F [Example 6-12, (R)-4-methyl-N-(1-(2-methyl-3-(trifluoromethyl)phenyl)ethyl)-7-morpholinopyrido[3,4-d]pyridazin-1-amine] | 63 nM | – | – | – | –
6 | Cc1c([C@@H](C)Nc2nnc(C)c3ccc(O[C@H]4CCNC4)cc23)cccc1C(F)(F)F [Example 7-3, 4-methyl-N-((R)-1-(2-methyl-3-(trifluoromethyl)phenyl)ethyl)-7-(((S)-pyrrolidin-3-yl)oxy)phthalazin-1-amine] | 55 nM | 28 nM | 0.32 nM | – | –
7 | Cc1c([C@@H](C)Nc2nnc(C)c3ccc(OC4CNC4)cc23)cccc1C(F)(F)F [Example 7-4, (R)-7-(azetidin-3-yloxy)-4-methyl-N-(1-(2-methyl-3-(trifluoromethyl)phenyl)ethyl)phthalazin-1-amine] | 83 nM | 14 nM | 0.47 nM | – | –
8 | Cc1c(C(F)F)cccc1[C@@H](C)Nc1nnc(C)c2ccc(N3CCNCC3)cc12 [Example 10-4, (R)-N-(1-(3-(difluoromethyl)-2-methylphenyl)ethyl)-4-methyl-7-(piperazin-1-yl)phthalazin-1-amine] | 33 nM | 14 nM | 0.08 nM | – | –
9 | Cc1c([C@@H](C)Nc2nnc(C)c3ccc(N4CCOC[C@@H]4C)cc23)cccc1C(F)(F)F [Example 10-6, 4-methyl-N-((R)-1-(2-methyl-3-(trifluoromethyl)phenyl)ethyl)-7-((S)-3-methylmorpholino)phthalazin-1-amine] | 75 nM | 21 nM | 0.64 nM | – | –
10 | CNC1CCN(c2ccc3c(C)nnc(N[C@H](C)c4cccc(C(F)(F)F)c4C)c3c2)CC1 [Example 10-7, (R)-4-methyl-N-(1-(2-methyl-3-(trifluoromethyl)phenyl)ethyl)-7-(4-(methylamino)piperidin-1-yl)phthalazin-1-amine] | 87 nM | 22 nM | 0.07 nM | – | –
11 | Cc1c([C@@H](C)Nc2nnc(C)c3ccc(N4CCC(N(C)C)CC4)cc23)cccc1C(F)(F)F [Example 10-8, (R)-7-(4-(dimethylamino)piperidin-1-yl)-4-methyl-N-(1-(2-methyl-3-(trifluoromethyl)phenyl)ethyl)phthalazin-1-amine] | 94 nM | 34 nM | 0.09 nM | – | –
12 | Cc1c([C@@H](C)Nc2nnc(C)c3ccc(N4CCC(C)(N)CC4)cc23)cccc1C(F)(F)F [Example 10-9, (R)-7-(4-amino-4-methylpiperidin-1-yl)-4-methyl-N-(1-(2-methyl-3-(trifluoromethyl)phenyl)ethyl)phthalazin-1-amine] | 152 nM | 54 nM | 0.05 nM | – | –
13 | Cc1c([C@@H](C)Nc2nnc(C)c3ccc(N4CCN(c5cnn(C)c5)CC4)cc23)cccc1C(F)(F)F [Example 10-10, (R)-4-methyl-7-(4-(1-methyl-1H-pyrazol-4-yl)piperazin-1-yl)-N-(1-(2-methyl-3-(trifluoromethyl)phenyl)ethyl)phthalazin-1-amine] | 15 nM | 17 nM | 0.01 nM | – | –
14 | Cc1nc(C)n2c1CN(c1ccc3c(C)nnc(N[C@H](C)c4cccc(C(F)(F)F)c4C)c3c1)CC2 [Example 10-11, (R)-7-(1,3-dimethyl-5,6-dihydroimidazo[1,5-a]pyrazin-7(8H)-yl)-4-methyl-N-(1-(2-methyl-3-(trifluoromethyl)phenyl)ethyl)phthalazin-1-amine] | 63 nM | 22 nM | 0.01 nM | – | –
15 | Cc1c([C@@H](C)Nc2nnc(C)c3ccc(N4CCN(C(=O)C5COC5)CC4)cc23)cccc1C(F)(F)F [Example 11-1, (R)-(4-(1-methyl-4-((1-(2-methyl-3-(trifluoromethyl)phenyl)ethyl)amino)phthalazin-6-yl)piperazin-1-yl)(oxetan-3-yl)methanone] | 6 nM | 10 nM | 0.01 nM | – | –
16 | Cc1c([C@@H](C)Nc2nnc(C)c3ccc(N4CCN(C(=O)C5CCOCC5)CC4)cc23)cccc1C(F)(F)F [Example 11-2, (R)-(4-(1-methyl-4-((1-(2-methyl-3-(trifluoromethyl)phenyl)ethyl)amino)phthalazin-6-yl)piperazin-1-yl)(tetrahydro-2H-pyran-4-yl)methanone] | 17 nM | 27 nM | < 0.01 nM | – | –
17 | Cc1c([C@@H](C)Nc2nnc(C)c3ccc(N4CCN(C(=O)C5(C(F)(F)F)CC5)CC4)cc23)cccc1C(F)(F)F [Example 11-3, (R)-(4-(1-methyl-4-((1-(2-methyl-3-(trifluoromethyl)phenyl)ethyl)amino)phthalazin-6-yl)piperazin-1-yl)(1-(trifluoromethyl)cyclopropyl)methanone] | 62 nM | 48 nM | < 0.01 nM | – | –
18 | Cc1c([C@@H](C)Nc2nnc(C)c3ccc(N4CCN(C(=O)[C@@H]5CCOC5)CC4)cc23)cccc1C(F)(F)F [Example 11-4, (4-(1-methyl-4-(((R)-1-(2-methyl-3-(trifluoromethyl)phenyl)ethyl)amino)phthalazin-6-yl)piperazin-1-yl)((R)-tetrahydrofuran-3-yl)methanone] | 19 nM | 25 nM | 0.01 nM | – | –
19 | Cc1cc(C#N)cc([C@@H](C)Nc2nnc(C)c3ccc(N4CCOCC4)cc23)c1 [Example 21-4, (R)-3-methyl-5-(1-((4-methyl-7-morpholinophthalazin-1-yl)amino)ethyl)benzonitrile] | – | – | – | 118 nM | 13.7 nM
20 | Cc1c([C@@H](C)Nc2nnc(C)c3ccc(N4CC[C@@H](N(C)C)C(F)(F)C4)cc23)cccc1C(F)(F)F [Example 21-5, 7-((R)-4-(dimethylamino)-3,3-difluoropiperidin-1-yl)-4-methyl-N—((R)-1-(2-methyl-3-(trifluoromethyl)phenyl)ethyl)phthalazin-1-amine] | – | 1110 nM | 1.34 nM | – | –
21 | Cc1c([C@@H](C)Nc2nnc(C)c3ccc(N4CC[C@H](N(C)C)C(F)(F)C4)cc23)cccc1C(F)(F)F [Example 21-6, 7-((S)-4-(dimethylamino)-3,3-difluoropiperidin-1-yl)-4-methyl-N—((R)-1-(2-methyl-3-(trifluoromethyl)phenyl)ethyl)phthalazin-1-amine] | – | 176 nM | 0.93 nM | – | –
22 | Cc1nnc(N[C@H](C)c2cccc(C(F)(F)CO)c2)c2cc(N3CCOCC3)ncc12 [Example 21-7, (R)-2,2-difluoro-2-(3-(1-((4-methyl-7-morpholinopyrido[3,4-d]pyridazin-1-yl)amino)ethyl)phenyl)ethan-1-ol] | – | – | – | 26 nM | 0.71 nM
23 | Cc1c([C@@H](C)Nc2nnc(C)c3ccc(N4CCOCC4)cc23)cc(F)cc1C(F)(F)F [Example 21-8, (R)—N-(1-(5-fluoro-2-methyl-3-(trifluoromethyl)phenyl)ethyl)-4-methyl-7-morpholinophthalazin-1-amine] | – | 90 nM | 3.17 nM | – | –
24 | Cc1c(C#N)cccc1[C@@H](C)Nc1nnc(C)c2c(F)cc(N3CCN4COCC[C@@H]4C3)cc12 [Example 21-9, 3-((R)-1-((5-fluoro-7-((R)-hexahydro-2H,6H-pyrazino[1,2-c][1,3]oxazin-2-yl)-4-methylphthalazin-1-yl)amino)ethyl)-2-methylbenzonitrile] | – | 54 nM | 2.1 nM | – | –
25 | Cc1c(C#N)cccc1[C@@H](C)Nc1nnc(C)c2c(F)cc(N3CC(C)(O)C3)cc12 [Example 21-10, (R)-3-(1-((5-fluoro-7-(3-hydroxy-3-methylazetidin-1-yl)-4-methylphthalazin-1-yl)amino)ethyl)-2-methylbenzonitrile] | – | 58 nM | 5.73 nM | – | –
